“And” between values parts separate entries of the source, which are not always exact repeats. Equal values may be shown once.
Experiments:
[1] = tested on: Brassica alboglabra (kale/Chinese kale, BRSAG); assay: Greenhouse postemergence application, visual injury after 20-22 d, BRSAG; conditions: for Obs % visual injury: BRSAG
Protocol: (§1) Seeds of the desired test plant species were planted in Sun Gro MetroMix® 306 planting mixture, which typically has a pH of 6.0 to 6.8 and an organic matter content of about 30 percent, in plastic pots with a surface area of 103.2 square centimeters (cm^2). […] The plants were grown for 7-36 days (d) in a greenhouse with an approximate 14-hour (h) photoperiod which was maintained at about 23° C. during the day and 22° C. during the night. Nutrients and water were added on a regular basis and supplemental lighting was provided with overhead metal halide 1000-Watt lamps as necessary. The plants were employed for testing when they reached the second or third true leaf stage.
(§2) An aliquot of formulated benzyl 4-amino-3-chloro-6-(4-chloro-2-fluoro-3-methoxyphenyl)-5-fluoropyridine-2-carboxylate (florpyrauxifen-benzyl; 300 grams active ingredient per liter (g ai/L) suspension concentrate (SC)) was placed in a 25 mL glass vial and diluted in a volume of 1.25% (v/v) aqueous Agri-dex crop oil concentrated to obtain a stock solution. […] The concentrated stock solutions were diluted with an aqueous mixture of 1.25% v/v of aqueous Agri-dex crop oil concentrate to provide the appropriate application rates. Compound requirements are based upon a 12 milliliter (mL) application volume at a rate of 187 liters per hectare (L/ha). Stock solutions of the formulated materials were prepared following the same procedure. Spray solutions of the compound mixtures were prepared by adding the stock solutions to the appropriate amount of dilution solution to form a 12 mL spray solution. Formulated compounds were applied to the plant material with an overhead Mandel track sprayer equipped with 8002E nozzles calibrated to deliver 187 L/ha over an application area of 0.503 square meters (m^2) at a spray height of 18 inches (43 centimeters (cm)) above average plant canopy. Control plants were sprayed in the same manner with the solvent blank.
(§3) The treated plants and control plants were placed in a greenhouse as described above and watered by sub-irrigation to prevent wash-off of the test compounds. After 20-22 d, the condition of the test plants as compared with that of the control plants was determined visually and scored on a scale of 0 to 100 percent where 0 corresponds to no injury and 100 corresponds to complete kill. Colby's equation was used to determine the herbicidal effects expected from the mixtures.
(§4) Benzyl 4-amino-3-chloro-6-(4-chloro-2-fluoro-3-methoxyphenyl)-5-fluoropyridine-2-carboxylate (florpyrauxifen-benzyl, 300 g ai/L SC) was combined in two-, three-, and four-way mixtures with one or more of the following: clopyralid-olamine (as Lontrel™ 35A Herbicidal Concentrate), quinclorac (as Facet 75DF), isoxadifen-ethyl (100 g/L SC), cloquintocet-mexyl (120 g/L EC) or mefenpyr-diethyl (as mefenpyr-diethyl 15WP). The mixtures were applied to kale/Chinese kale (Brassica alboglabra, BRSAG), Juncea canola or brown mustard (Brassica juncea, BRSJU), rutabaga (Brassica napus var. napobrassica, BRSNA), all varieties of canola and oilseed rape (Brassica napus, BRSNN), Nexera™ canola (Brassica napus, BRSNN-NEX), winter oilseed rape (Brassica napus, BRSNW), Roundup Ready® canola (Brassica napus, RR-BRSNN), and turnip or Polish canola (Brassica rapa, BRSRR), and the phytotoxicity of the compositions was measured.
(§5) Colby's equation was used to determine the herbicidal effects expected from the mixtures evaluated in the described trials (Colby, S. R. Calculation of the synergistic and antagonistic response of herbicide combinations. Weeds 1967, 15, 20-22.).
(§6) The following equation was used to calculate the expected activity of mixtures containing two active ingredients, A and B: Expected=A+B−(A×B/100) • A=observed efficacy of active ingredient A at the same concentration as used in the mixture; • B=observed efficacy of active ingredient B at the same concentration as used in the mixture.

[2] = tested on: Brassica rapa (turnip or Polish canola, BRSRR); assay: Greenhouse postemergence application, visual injury after 20-22 d, BRSRR; conditions: for Obs % visual injury: BRSRR
Protocol: as §1, §2, §3, §4, §5, §6

[3] = tested on: Brassica napus (Roundup Ready canola, RR-BRSNN); assay: Greenhouse postemergence application, visual injury after 20-22 d, RR-BRSNN; conditions: for Obs % visual injury: RR-BRSNN
Protocol: as §1, §2, §3, §4, §5, §6

[4] = tested on: Brassica napus (winter oilseed rape, BRSNW); assay: Greenhouse postemergence application, visual injury after 20-22 d, BRSNW; conditions: for Obs % visual injury: BRSNW
Protocol: as §1, §2, §3, §4, §5, §6

[5] = tested on: Brassica juncea (Juncea canola or brown mustard, BRSJU); assay: Greenhouse postemergence application, visual injury after 20-22 d, BRSJU; conditions: for Obs % visual injury: BRSJU
Protocol: as §1, §2, §3, §4, §5, §6

[6] = tested on: Brassica napus (all varieties of canola and oilseed rape, BRSNN); assay: Greenhouse postemergence application, visual injury after 20-22 d, BRSNN; conditions: for Obs % visual injury: BRSNN
Protocol: as §1, §2, §3, §4, §5, §6

[7] = tested on: Brassica napus var. napobrassica (rutabaga, BRSNA); assay: Greenhouse postemergence application, visual injury after 20-22 d, BRSNA; conditions: for Obs % visual injury: BRSNA
Protocol: as §1, §2, §3, §4, §5, §6

[8] = tested on: Brassica napus (Nexera canola, BRSNN-NEX); assay: Greenhouse postemergence application, visual injury after 20-22 d, BRSNN-NEX; conditions: for Obs % visual injury: BRSNN-NEX
Protocol: as §1, §2, §3, §4, §5, §6

[9] = clopyralid-olamine 50 g ai/ha alone
[10] = clopyralid-olamine 100 g ai/ha alone
[11] = clopyralid-olamine 200 g ai/ha alone
[12] = postemergence application, greenhouse, application rate (g ai/ha) varies

O=C(O)c1nc(Cl)ccc1Cl [Clopyralid-olamine, 2-hydroxyethanaminium 3,6-dichloro-2-pyridinecarboxylate]
Obs % visual injury ([1]; partner alone 50 g ai/ha): 0% | Obs % visual injury ([1]; partner alone 100 g ai/ha): 0% | Obs % visual injury ([1]; partner alone 200 g ai/ha): 0% | % Visual Injury BRSAG Obs [1, 9]: 0% | % Visual Injury Obs [1, 9]: 0% | % Visual Injury BRSAG Obs [1, 10]: 0% | % Visual Injury Obs [1, 10]: 0% | % Visual Injury BRSAG Obs [1, 11]: 0% | % Visual Injury Obs [1, 11]: 0% | % Visual Injury BRSAG Obs [1, 12]: 0% | Obs % visual injury ([2]; partner alone 50 g ai/ha): 0% | Obs % visual injury ([2]; partner alone 100 g ai/ha): 0% | Obs % visual injury ([2]; partner alone 200 g ai/ha): 0% | % Visual Injury BRSRR Obs [2, 9]: 0% | % Visual Injury Obs [2, 9]: 0% | % Visual Injury BRSRR Obs [2, 10]: 0% | % Visual Injury Obs [2, 10]: 0% | % Visual Injury BRSRR Obs [2, 11]: 0% | % Visual Injury Obs [2, 11]: 0% | % Visual Injury BRSRR Obs [2, 12]: 0% | Obs % visual injury ([3]; partner alone 50 g ai/ha): 0% | Obs % visual injury ([3]; partner alone 100 g ai/ha): 0% | Obs % visual injury ([3]; partner alone 200 g ai/ha): 0% | % Visual Injury Obs [3, 9]: 0% | % Visual Injury RR-BRSNN Obs [3, 9]: 0% | % Visual Injury Obs [3, 10]: 0% | % Visual Injury RR-BRSNN Obs [3, 10]: 0% | % Visual Injury Obs [3, 11]: 0% | % Visual Injury RR-BRSNN Obs [3, 11]: 0% | % Visual Injury RR-BRSNN Obs [3, 12]: 0% | Obs % visual injury ([4]; partner alone 50 g ai/ha): 0% | Obs % visual injury ([4]; partner alone 100 g ai/ha): 0% | Obs % visual injury ([4]; partner alone 200 g ai/ha): 0% | % Visual Injury BRSNW Obs [4, 9]: 0% | % Visual Injury Obs [4, 9]: 0% | % Visual Injury BRSNW Obs [4, 10]: 0% | % Visual Injury Obs [4, 10]: 0% | % Visual Injury BRSNW Obs [4, 11]: 0% | % Visual Injury Obs [4, 11]: 0% | % Visual Injury BRSNW Obs [4, 12]: 0% | Obs % visual injury ([5]; partner alone 50 g ai/ha): 0% | Obs % visual injury ([5]; partner alone 100 g ai/ha): 0% | Obs % visual injury ([5]; partner alone 200 g ai/ha): 0% | % Visual Injury BRSJU Obs [5, 9]: 0% | % Visual Injury Obs [5, 9]: 0% | % Visual Injury BRSJU Obs [5, 10]: 0% | % Visual Injury Obs [5, 10]: 0% | % Visual Injury BRSJU Obs [5, 11]: 0% | % Visual Injury Obs [5, 11]: 0% | % Visual Injury BRSJU Obs [5, 12]: 0% | Obs % visual injury ([6]; partner alone 50 g ai/ha): 2% | Obs % visual injury ([6]; partner alone 100 g ai/ha): 0% | Obs % visual injury ([6]; partner alone 200 g ai/ha): 0% | % Visual Injury BRSNN Obs [6, 9]: 2% | % Visual Injury Obs [6, 9]: 2% | % Visual Injury BRSNN Obs [6, 10]: 0% | % Visual Injury Obs [6, 10]: 0% | % Visual Injury BRSNN Obs [6, 11]: 0% | % Visual Injury Obs [6, 11]: 0% | % Visual Injury BRSNN Obs [6, 12]: 2% and 0% | Obs % visual injury ([7]; partner alone 50 g ai/ha): 0% | Obs % visual injury ([7]; partner alone 100 g ai/ha): 0% | Obs % visual injury ([7]; partner alone 200 g ai/ha): 0% | % Visual Injury BRSNA Obs [7, 9]: 0% | % Visual Injury Obs [7, 9]: 0% | % Visual Injury BRSNA Obs [7, 10]: 0% | % Visual Injury Obs [7, 10]: 0% | % Visual Injury BRSNA Obs [7, 11]: 0% | % Visual Injury Obs [7, 11]: 0% | % Visual Injury BRSNA Obs [7, 12]: 0% | Obs % visual injury ([8]; partner alone 50 g ai/ha): 0% | Obs % visual injury ([8]; partner alone 100 g ai/ha): 0% | Obs % visual injury ([8]; partner alone 200 g ai/ha): 0% | % Visual Injury BRSNN-NEX Obs [8, 9]: 0% | % Visual Injury Obs [8, 9]: 0% | % Visual Injury BRSNN-NEX Obs [8, 10]: 0% | % Visual Injury Obs [8, 10]: 0% | % Visual Injury BRSNN-NEX Obs [8, 11]: 0% | % Visual Injury Obs [8, 11]: 0% | % Visual Injury BRSNN-NEX Obs [8, 12]: 0%

CCOC(=O)C1=NN(c2ccc(Cl)cc2Cl)C(C)(C(=O)OCC)C1 (racemic) [Mefenpyr-diethyl, diethyl (RS)-1-(2,4-dichlorophenyl)-5-methyl-2-pyrazoline-3,5-dicarboxylate]
Obs % visual injury BRSAG ([1]; safener alone 5 g ai/ha): 0% | Obs % visual injury BRSAG ([1]; safener alone 10 g ai/ha): 0% | Obs % visual injury BRSAG ([1]; safener alone 20 g ai/ha): 0% | Obs % visual injury BRSAG ([1]; safener alone 40 g ai/ha): 0% | Obs % visual injury BRSRR ([2]; safener alone 5 g ai/ha): 0% | Obs % visual injury BRSRR ([2]; safener alone 10 g ai/ha): 0% | Obs % visual injury BRSRR ([2]; safener alone 20 g ai/ha): 0% | Obs % visual injury BRSRR ([2]; safener alone 40 g ai/ha): 0% | Obs % visual injury RR-BRSNN ([3]; safener alone 5 g ai/ha): 0% | Obs % visual injury RR-BRSNN ([3]; safener alone 10 g ai/ha): 0% | Obs % visual injury RR-BRSNN ([3]; safener alone 20 g ai/ha): 0% | Obs % visual injury RR-BRSNN ([3]; safener alone 40 g ai/ha): 0% | Obs % visual injury BRSNW ([4]; safener alone 5 g ai/ha): 0% | Obs % visual injury BRSNW ([4]; safener alone 10 g ai/ha): 0% | Obs % visual injury BRSNW ([4]; safener alone 20 g ai/ha): 0% | Obs % visual injury BRSNW ([4]; safener alone 40 g ai/ha): 0% | Obs % visual injury BRSJU ([5]; safener alone 5 g ai/ha): 0% | Obs % visual injury BRSJU ([5]; safener alone 10 g ai/ha): 0% | Obs % visual injury BRSJU ([5]; safener alone 20 g ai/ha): 0% | Obs % visual injury BRSJU ([5]; safener alone 40 g ai/ha): 0% | Obs % visual injury BRSNN ([6]; safener alone 5 g ai/ha): 0% | Obs % visual injury BRSNN ([6]; safener alone 10 g ai/ha): 0% | Obs % visual injury BRSNN ([6]; safener alone 20 g ai/ha): 0% | Obs % visual injury BRSNN ([6]; safener alone 40 g ai/ha): 0% | Obs % visual injury BRSNA ([7]; safener alone 5 g ai/ha): 0% | Obs % visual injury BRSNA ([7]; safener alone 10 g ai/ha): 0% | Obs % visual injury BRSNA ([7]; safener alone 20 g ai/ha): 0% | Obs % visual injury BRSNA ([7]; safener alone 40 g ai/ha): 0% | Obs % visual injury BRSNN-NEX ([8]; safener alone 5 g ai/ha): 0% | Obs % visual injury BRSNN-NEX ([8]; safener alone 10 g ai/ha): 0% | Obs % visual injury BRSNN-NEX ([8]; safener alone 20 g ai/ha): 0% | Obs % visual injury BRSNN-NEX ([8]; safener alone 40 g ai/ha): 0%

Reference: patent US10219513B2, “Safening 4-amino-3-chloro-6-(4-chloro-2-fluoro-3-methoxyphenyl)-5-fluoropyridine-2-carboxylic acid compositions in Brassica species and methods of use thereof” (Dow AgroSciences LLC, priority 2016, dated 2019)
